Experimental data reported in publication PMC7464911, “Isolation of Antidiabetic Withanolides from Withania coagulans Dunal and Their In Vitro and In Silico Validation” (Biology, 2020).
Entries after “also recorded” stand apart in the source; their conditions may differ. Read-outs that look alike come from different tables or passages of the source.

Experiments:
[1] = system: Sprague-Dawley normoglycemic rat model; design: method as in PMID 24566854; conditions: cited from earlier work
α-glucosidase [2] = molecular target: T1, α-glucosidase (Saccharomyces cerevisiae, UniProt P53341); assay: biochemical
Description: (§1) α-Glucosidase inhibitory potential of test compounds was assayed by using 0.1 M phosphate buffer (pH 6.8) at 37 °C. The enzyme (0.2 U/mL) in phosphate buffer was incubated with selected concentrations of test compounds at 37 °C for 15 min. The substrate, p-nitrophenyl-α-D-glucopyranoside (PNP-G) (0.7 mM) was added in each well of 96-well plate and change in absorbance was monitored at 400 nm for 30 min. […] The increase in absorption due to the hydrolysis of PNP-G by α-glucosidase was recorded continuously with the spectrophotometer (Spectra Max, MD, USA.) and percent inhibition was calculated by using the following formula: % Inhibition = 100−⦋OD of test sample/OD of the control×100⦌
(§2) The experiments were performed by using 96-well microplate reader (SpectraMax M2, Molecular Devices, CA, USA) and the results were analyzed by SoftMaxPro 4.8 and MS-Excel. The experiments were repeated in triplicate, and results were presented as means ± SEM. IC50 values were determined by using EZ-FIT, Enzyme kinetics software by Perrella Scientific, Inc., Amherst, MA, USA.

[3] = system: AGE formation (bovine serum albumin, methylglyoxal); assay: In vitro antiglycation assay (BSA-methylglyoxal, AGE fluorescence); format: biochemical
Description: Methylglyoxal (14 mM), sodium azide (30 mM) in 0.1 M phosphate buffer, bovine serum albumin (10 mg/mL), and various concentrations of the compounds (prepared in 10% DMSO) were incubated under sterile conditions at 37 °C for 9 days. […] Standard rutin was used as a positive control and percent inhibition of AGE formation in the test sample versus control was calculated by using the following relation: % Inhibition = ⦋1−Fluorescence of test sample/Fluorescence of the control⦌×100

α-glucosidase [4] = molecular target: T1, α-glucosidase; conditions: for α-Glucosidase Inhibition IC50 (µM) ± (SEM): pH 6.8, 37 °C, PNP-G 0.7 mM, mean ± SEM, triplicate
Description: as §1, §2

T1 sequence (P53341 whole entry): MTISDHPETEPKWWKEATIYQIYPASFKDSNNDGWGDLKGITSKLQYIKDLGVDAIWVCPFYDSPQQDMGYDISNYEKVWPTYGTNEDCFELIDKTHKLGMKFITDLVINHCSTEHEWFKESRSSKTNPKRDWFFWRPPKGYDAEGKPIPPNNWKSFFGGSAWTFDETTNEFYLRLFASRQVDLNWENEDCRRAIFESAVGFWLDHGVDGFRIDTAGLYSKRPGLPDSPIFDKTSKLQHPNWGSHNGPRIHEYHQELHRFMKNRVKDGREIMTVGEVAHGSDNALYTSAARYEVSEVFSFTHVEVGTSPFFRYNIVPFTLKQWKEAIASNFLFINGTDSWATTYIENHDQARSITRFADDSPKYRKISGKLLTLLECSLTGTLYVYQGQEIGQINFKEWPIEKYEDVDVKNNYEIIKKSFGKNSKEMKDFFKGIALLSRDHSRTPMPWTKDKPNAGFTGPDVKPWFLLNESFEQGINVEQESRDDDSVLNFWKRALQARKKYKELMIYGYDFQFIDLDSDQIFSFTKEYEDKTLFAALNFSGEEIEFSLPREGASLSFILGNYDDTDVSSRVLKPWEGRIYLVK

| Compound | IC50 (α-glucosidase [2]) [µM] | Antiglycation IC50 (µM) ± (SEM) ([3]; 37 °C, 9 days, mean ± SEM) | α-glucosidase inhibitory activity (in words) (α-glucosidase [4]) | α-Glucosidase Inhibition IC50 (µM) ± (SEM) (α-glucosidase [4]) | further results |
| --- | --- | --- | --- | --- | --- |
| 17β-hydroxywithanolide K |  |  |  |  | anti-inflammatory activity [1]: potent; antihyperglycemic activity [1]: potent |
| CC1=C(C)C(=O)O[C@@H]([C@@](C)(O)[C@@]2(O)CC[C@@]3(O)[C@@H]4CC=C5CC=CC(=O)[C@]5(C)[C@H]4CC[C@]23C)C1 [Compound 2, withanolid J] | 683 ± 0.94 | Inactive |  |  |  |
| CC1=C(C)C(=O)O[C@@H]([C@@](C)(O)[C@@]2(O)CC[C@@]3(O)[C@@H]4CCC5=CC=CC(=O)[C@]5(C)[C@H]4CC[C@]23C)C1 [Compound 4, withaperuvin C] | 407 ± 4.5 | Inactive |  |  |  |
| CC1=C(CO)C(=O)O[C@@H]([C@@](C)(O)[C@@]2(O)CC[C@@]3(O)[C@@H]4CC=C5C=CCC(=O)[C@]5(C)[C@H]4CC[C@]23C)C1 [Compound 6, ajugin E] |  |  | did not possess α-glucosidase inhibitory activity | Inactive | Antiglycation IC50 (µM) ± (SEM) [3]: Inactive |
| CC1=C(C)C(=O)O[C@@H]([C@](C)(O)[C@]2(O)CC[C@@]3(O)[C@@H]4C[C@H]5O[C@]56[C@@H](O)C=CC(=O)[C@]6(C)[C@H]4CC[C@]23C)C1 [4β-hydroxywithanolide E] |  |  |  |  | anti-inflammatory activity [1]: potent; antihyperglycemic activity [1]: potent |
| CC1=C(CO)C(=O)O[C@@H]([C@@](C)(O)[C@H]2CC[C@@]3(O)[C@@H]4CC=C5C=CCC(=O)[C@]5(C)[C@H]4CC[C@]23C)C1 [Compound 5, 27-hydroxywithanolide I] | 66.7 ± 3.6 | Inactive |  |  |  |
| CC1=C(COC2OC(CO)C(O)C(O)C2O)C(=O)OC(C2(C)OC34CCC2C3(C)CCC2C4CC=C3CC(O)CC(=O)C32C)C1 (stereo not drawn) [Compound 1, 3β-Hydroxy-14R,20R-epoxy-1-oxowitha-5,24-dienolide-27-O-β-D glucopyranoside] |  |  | did not possess α-glucosidase inhibitory activity; also recorded: inactive | Inactive | Antiglycation IC50 (µM) ± (SEM) [3]: Inactive |
| CC1=C(C)C(=O)O[C@@H]([C@@]2(C)O[C@@]34CC[C@@H]2[C@@]3(C)CC[C@H]2[C@H]4CC=C3C=CCC(=O)[C@@]32C)C1 [Compound 3, coagulin E] |  | Inactive | did not possess α-glucosidase inhibitory activity | Inactive |  |
| C[C@@H]1O[C@@H](OC[C@H]2O[C@@H](Oc3c(-c4ccc(O)c(O)c4)oc4cc(O)cc(O)c4c3=O)[C@H](O)[C@@H](O)[C@@H]2O)[C@H](O)[C@H](O)[C@H]1O [Rutin, rutin, reference compound] |  |  |  |  | IC50 ([3]; 37 °C, 9 days, mean ± SEM): 288.9 ± 1.84 µM |
